Source: PMC9525908, “α-Crystallin chaperone mimetic drugs inhibit lens γ-crystallin aggregation: Potential role for cataract prevention” (The Journal of Biological Chemistry, 2022)

Legend:
HγS_N14/76/143D = target: T1, HγS_N14/76/143D (Homo sapiens, UniProt P22914, N144D/N15D/N77D); experiment: Thermal aggregation (72 °C, 20 min) turbidity assay, HγS triple mutant; assay type: biochemical; conditions: read-out: % Suppression; for inhibition: HγS_N14/76/143D, 75 μM protein, 72 °C 20 min
T1 sequence (P22914 1-178 N15D/N77D/N144D): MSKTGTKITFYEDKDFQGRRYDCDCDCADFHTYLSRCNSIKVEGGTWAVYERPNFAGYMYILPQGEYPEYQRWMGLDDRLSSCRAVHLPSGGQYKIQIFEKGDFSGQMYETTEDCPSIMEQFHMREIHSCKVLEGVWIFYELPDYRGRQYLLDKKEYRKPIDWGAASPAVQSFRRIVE
Source text: (§1) For a review, see the study by Roskamp et al. ([38]). […] For the mechanistic studies below these two compounds together with either drug M, chosen mostly as negative control, or the entire set of six compounds were used for comparison purpose, whereby the words “drug” or “compound” are used interchangeably in the studies later.

Bovine γ-crystallins = experiment: Thermal aggregation (72 °C) turbidity assay, bovine γ-crystallins (pool 4); assay type: biochemical; conditions: for Thermal denaturation inhibitory activity in subscreen: 150 μM; for Thermal denaturation inhibitory activity in subscreen / % Suppression: 72 °C 20 min; for % Suppression: 75 μM protein, 125 μM or less inhibitor (1.7:1); for Effect on BGC aggregation at lower protein concentrations / Effect on absorbance of BGC at 2.0 mg/ml: 400 μM drug, 72 °C, 10 and 20 min
Procedure: Candidate compounds were rescreened using thermal denaturation upon heating at 72 °C for 20 min according to Chen et al. ([36]) in order to select for compounds with chaperone rather than antioxidant activity since a large number of the latter already exist in the cataract field ([37]).
as §1
All assays were carried out manually in CORNING #9017 Costar Assay 96-well plates. Wells were filled with 90 μl calf γ-crystallin-rich protein solution (pool 4 at 2 mg/ml) followed by 0.5 to 5.0 μl of drug (all 10 mM stock solution in DMSO) as supplied by the manufacturer and 10 μl H2O2 (450 mM stock solution in water) and sealed with sticky Applied Biosystems MicroAmp Clear Adhesive films (Life Technologies). Control wells received DMSO only. Plates were shaken for 2 min and incubated from 24 to 72 h in a culture room at 37 °C. […] A second reading was performed following a heat shock of 20 min at 72 °C as described by Chen et al. ([36]) in order to capture drugs with heat-resistant chaperone activity. In order to quantitate the impact of the drugs on aggregation, a fitness plot was created (Fig. 1 C) that allowed us to identify wells with enhanced/worsening versus suppressed crystallin aggregation. In addition, aggregation in each well was also visually assessed by two independent “blinded” readers for the ability to read fine print through each well by placing the plates over small font text (Fig. 1D). Both machine and visual readouts were reconciled in order to increase robustness.
Final DMSO concentration was 5% including in control samples. Microtiter plates were first incubated for 10 min at 72 °C and reincubated for 10 more min. Absorbance was measured at both 10 and 20 min total incubation time.

MγS = target: T2, MγS (Mus musculus, UniProt O35486); experiment: Steady-state tryptophan fluorescence quenching, MγS; assay type: binding
T2 construct: made in house; host or cells: E. coli BL21(DE3) pLysS, pET17b vector
T2 sequence (O35486 1-178): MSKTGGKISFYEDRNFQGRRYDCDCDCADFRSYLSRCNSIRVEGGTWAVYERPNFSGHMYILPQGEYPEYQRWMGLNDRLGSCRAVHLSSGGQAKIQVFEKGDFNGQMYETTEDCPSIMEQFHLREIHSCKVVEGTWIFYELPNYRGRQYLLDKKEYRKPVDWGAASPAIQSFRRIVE
Procedure: Tryptophan fluorescence can be used for studying conformational changes resulting from protein–drug interactions ([44]). Fluorescence quenching of aromatic fluorophores in HγD and MγS by drugs C and G at three different temperatures (25, 30, and 37 °C) was studied in the presence of varying concentrations of drug C and G (0–250 μM). As shown in Figs. S5A and S6A, both HγD and MγS have a strong emission peak at 330 nm when excited at 295 nm. In both cases, quenching occurs with gradual addition of C and G at all three temperatures. Overall, quenching of Trp fluorescence emission is at highest at 25 °C (Figs. S5A and S6A) followed by 30 °C and lowest at 37 °C. […] The slope of plot Fo/F versus [Q] gives Ksv (Figs. S5B and S6B), whereas Kb is obtained from intercept of plot log (Fo/F − 1) versus log[Q] (Figs. S5C and S6C). […] For drug M, Kb values are of the order 10^2 M^−1 only. Fluorescence quenching can be either because of random collision between the molecules (dynamic interaction) or because of actual affinity between a protein pocket and drug (static interaction). Dynamic interactions are weaker and nonspecific in nature, whereas static interactions are stronger and more specific ([47]). For more information on the type of interaction, Kq was calculated and compared with the standard value of 2 × 10^10 M^−1s^−1, which is the maximum scatter collision quenching constant of various quenchers with biopolymers ([48]). […] Furthermore, the differential response of Ksv toward temperature change also clarifies the type of quenching. In static quenching, Ksv decreases with an increase in temperature because of the formation of complex with protein, which undergoes dissociation on increasing temperature.
To gauge the strength of the major forces involved in drug–protein complex formation, change in free energy was calculated using Gibbs–Helmholtz equation (Equation 3).(3) ΔG=-RTlnKb ([50]) where, R is gas constant and its value is […], T is absolute temperature (Kelvin) and Kb is binding constant whose value is already calculated using Equation 2. […] Free energy changes are negative at all three temperatures, being maximal at 25 °C. For C, G, and M interaction with HγD, ΔG values were −6.4, −7.9, and −1.9 kcal/mol (at 25 °C), that is, similar to those obtained by molecular docking as described later. These values also reflect the fact that drug M had the least protective effect on unfolding or aggregation of various γ-crystallins (Figs. 2 and S4).
All the steady-state fluorescence measurements were recorded on Fluoromax Spectrofluorometer (Horiba Scientific). For fluorescence quenching measurements, 10 μM of both HγD and MγS crystallins were titrated with varying concentrations of drugs C, G, and M (0–250 μM) at 25, 30, and 37 °C. These samples were excited at 295 nm, and the fluorescence emission was collected from 310 to 410 nm.

WT-MγS = target: T3, WT-MγS (Mus musculus, UniProt O35486); experiment: Thermal unfolding (Tm), WT-MγS; assay type: biochemical; conditions: 10 μM protein, 100 μM drug; Con 70
T3 construct: made in house; host or cells: E. coli BL21(DE3) pLysS, pET17b vector
T3 sequence (O35486 1-178): T2 sequence (O35486 1-178)
Procedure: Thermal denaturation study was monitored using fluorescence spectroscopy. Protein solutions (10 μM) in the presence and absence of drugs or bis-ANS (100 μM) were heated continuously from 30 to 95 °C, and the fluorescence data were collected every 5 °C after 1 min equilibration at the given temperature. Unfolding data were fit to Greene and Pace’s two-state model ([82]) using GraphPad Prism software (GraphPad Software, Inc).

[1] = Bovine γ-crystallins experiment 1
[2] = Bovine γ-crystallins experiment 2

Row | inhibition (HγS_N14/76/143D) [%] | Structure (SMILES) | Thermal denaturation inhibitory activity in subscreen (Bovine γ-crystallins) | % Suppression (Bovine γ-crystallins; [1]) [%] | % Suppression (Bovine γ-crystallins; [2]) [%] | inhibition at 125 µM (HγS_N14/76/143D) [%] | Effect on BGC aggregation at lower protein concentrations (Bovine γ-crystallins) | Effect on absorbance of BGC at 2.0 mg/ml (Bovine γ-crystallins) | KSV (MγS; 25 °C) [M^−1 ×10^3] | Kq (MγS; 25 °C) [M^−1 s^−1 ×10^12] | ΔG (MγS; 25 °C) [kcalM^−1] | KSV (MγS; 30 °C) [M^−1 ×10^3] | Kq (MγS; 30 °C) [M^−1 s^−1 ×10^12] | ΔG (MγS; 30 °C) [kcalM^−1] | KSV (MγS; 37 °C) [M^−1 ×10^3] | Kq (MγS; 37 °C) [M^−1 s^−1 ×10^12] | ΔG (MγS; 37 °C) [kcalM^−1] | Tm (°C) WT-MGS (WT-MγS) [°C]
1 | 46 | COC(=O)/C=C/C(C)=C\C=C\C(C)=C\C=C\C=C(C)\C=C\C=C(C)\C=C\C(=O)O [drug B, Bixin] | thermal denaturation inhibitory activity | 23 | 54 |  |  |  |  |  |  |  |  |  |  |  |  | 
2 |  | Cc1cc(C(C#N)c2ccc(Cl)cc2)c(Cl)cc1NC(=O)c1cc(I)cc(I)c1O (centres unmarked) [drug C, Closantel] | thermal denaturation inhibitory activity | 60 | 73 | 76 | stimulated aggregation | reproducibly suppressed absorbance | 4.828 | 0.847 | −7.0 | 4.249 | 0.745 | −6.2 | 2.988 | 0.524 | −4.1 | 72
3 |  | CC(C)=CCCC1(C)C=Cc2c(O)c3c(c(CC=C(C)C)c2O1)OC12C(=CC4CC1C(C)(C)OC2(C/C=C(/C)C(=O)O)C4O)C3=O (centres unmarked) [drug D, dihydrogambogic acid] | thermal denaturation inhibitory activity | 40 | 44 | 32 |  |  |  |  |  |  |  |  |  |  |  | 
4 |  | CC(C)=CCC[C@]1(C)C=Cc2c(O)c3c(c(CC=C(C)C)c2O1)O[C@]12C(=C[C@@H]4C[C@H]1C(C)(C)O[C@@]2(C/C=C(/C)C(=O)O)C4=O)C3=O [drug G, Gambogic acid] | thermal denaturation inhibitory activity | 48 | 75 | 89 | stimulated aggregation | reproducibly suppressed absorbance | 7.283 | 1.37 |  | 8.034 | 1.4 | −5.6 | 4.905 | 0.86 | −6.5 | 73
5 | 46 | O=C(O)CCCCCCCCCCCC[C@@H]1C=CCC1 [drug M, Chaulmoogric acid] | thermal denaturation inhibitory activity | 40 | 16 |  |  |  | 0.793 | 0.14 | −2.7 | 0.733 | 0.13 | −2.6 | 0.491 |  | −2.2 | 68
6 |  | Oc1c(Cl)cc(Cl)c(Cl)c1Cc1c(O)c(Cl)cc(Cl)c1Cl [drug X, Hexachlorophene] | thermal denaturation inhibitory activity | 30 | 55 | 71 |  |  |  |  |  |  |  |  |  |  |  | 
